Test results as given in patent publication US8975259B2, “Compositions and methods for inhibiting G protein signaling” (University of Rochester, priority 2007, dated 2015).
pIC50: −log10 of the molar value. Entries after “also recorded” stand apart in the source; their conditions may differ. Where two headings read alike, the source gives them in different places.

Experiments:
[1] = test system: differentiated HL60 cells; assay: fMLP-induced chemotaxis of differentiated HL60 cells (Boyden chamber); format: cell-based, human; settings: 10 μM compound, 250 nM fMLP; result in words
Method: Same as A with purified human neutrophils.
Differentiated HL60 cells (200 k) were pretreated with 10 μM concentrations of the indicated compound, challenged with 250 nM fMLP, and assayed for chemotaxis in a Boyden chamber for 1 h at 37° C. […] Chemotaxis was quantified as above by subtracting out background cells (0-10 cells) in the absence of chemoattractant to obtain total transmigrated cells (−100 cells GM-CSF+vehicle) and represented as the percentage of GM-CSF-treated control cells. No statistically significant difference from control was seen by ANOVA. […] Primary human neutrophils were isolated from whole blood to ≧80% purity. Neutrophils (2×10^5) were pretreated with gallein (10 μM), M119 (10 μM), M119B (10 μM), or wortmannin (wtmn.) (1 μM) and then challenged with 250 nM fMLP or 10 nM IL-8 to evaluate chemotaxis in a Boyden chamber for 1 h at 37° C. […] NS, not statistically different from control. […] Primary human neutrophils were isolated and treated (250 nM fMLP±gallein) as described above. Chemotaxis was quantified as above by subtracting out background cells to obtain total transmigrated cells and represented as the percentage of fMLP-treated control cells. Data shown are pooled from two independent experiments, each in duplicate, ±S.E.M.
Chemotaxis was assayed using a Boyden chamber (Neuro Probe, Gaithersburg, Md.) using 3-μm polyvinylpyrrolidone-free polycarbonate filters (Neuro Probe). HL60 cells (differentiated for 4 days) were washed with and resuspended in HBSS containing 1% bovine serum albumin to a final concentration of 1×10^6 cells/ml. Primary human neutrophils were washed and resuspended in NaCl buffer (140 mM NaCl, 4 mM KCl, 10 mM D-glucose, 10 mM HEPES, pH 7.4, 1 mM MgCl2, and 1 mM CaCl2) to a final concentration of 1×10^6 cells/mi. Chemoattractant [1 μM granulocyte-macrophage-colony stimulating factor (GM-CSF), 10 nM IL-8, or 250 nM fMLP; Sigma Aldrich] was added to the bottom chamber in HBSS containing 1% bovine serum albumin.

[2] = test system: isolated adult mouse cardiomyocytes; assay: Contractility of isolated adult mouse cardiomyocytes; format: cell-based; settings: result in words
Method: Pretreatment with the general β-AR antagonist, propranolol, abolishes the effects of M119 and Iso on cardiomyocyte contractility.
The above data led to investigations that M119 plays a positive functional role in the heart, due in part to its inhibition of Gβγ-GRK2 interactions. Prior to pursuing in vivo studies with M119, the role of M119 affecting contractility was evaluated by assessment of isolated adult mouse cardiomyocyte contractility at baseline and in response to β-AR stimulation.
Mechanical properties of ventricular myocytes are assessed by an IonOptix Myocam system (IonOptix Inc., Milton, Mass., U.S.A.). Myocytes are superfused (at 25° C.) with Tyrodes, cells are pre-loaded in culture medium for 20 minutes with Fura-2, for concurrent calcium flux and myocyte contractility following field stimulation at 0.5 Hz.

Gβ1γ2 = Gβ1γ2 (UniProt P54311+P63212); assay: Competition phage ELISA: inhibition of SIGK-phage binding to immobilized biotinylated Gβ1γ2; design: made in house; host or cells: Sf9 insect cells (baculovirus; co-expressed with BirA and (His)6-Gαi1, from which βγ was eluted); species or system rat
Method: Phage ELISA assays used to assess peptide binding to wild-type and mutant b-βγ were performed according to standard methods (Smrcka and Scott (2002) Methods Enzymol. 344:557-76). Briefly, 1 μg streptavidin was immobilized in the well of a […] overnight at 4° C. The wells were blocked with 100 μL of 2% bovine serum albumin (BSA) in Tris-buffered saline (TBS) for 1 hour at 4° C. followed by three washes of IX TBS/0.5% TWEEN®. […] The wells were washed, followed by the addition of IxIO^6 to IxIO^10 phage particles and incubated at 4° C. for 3 hours. The wells were then washed six times with TBS/0.5% TWEEN® followed by addition of 40 μL of 1:5000 dilution of anti-M13 antibody (Pharmacia, Uppsala, Sweden) and incubated at room temperature for 1 hour. The wells were washed, followed by the addition of 40 μL of (2,2′-Azino-bis (3-ethylbenzthiazoline)-6-sulfonic acid (ABTS) and the colorimetric reaction was monitored at 405 nm. Nonspecific binding was subtracted for each reading.
A phage ELISA assay was used to determine whether small molecules identified in the computational screen could interact with the Gβy protein interaction surface. […] The screen was based on a reduction in the optical density (OD) of wells containing Gβγ subunits and phage. […] Three background wells contained no βy subunits.
As disclosed herein, biotinylated Gβy subunits were immobilized on the surface of a 96-well plate coated with streptavidin, phage displaying Gβγ-binding peptides were subsequently added and binding in the presence and absence of test compounds detected with an anti-phage antibody.
The phage ELISA assay was used to rapidly screen the ability of compounds to bind to the protein interaction “hot spot” based on the method of Scott et. al (Scott et al., 2001). This assay is performed in the presence of detergent (0.5% Tween) to eliminate non-specific compound aggregation artifacts.
Compounds/DMSO and 0.1×10^10 phage were added simultaneously and subsequently incubated for 1 h at room temperature. Plates were then washed with 1× Tris-buffered saline/0.5% Tween 20 and incubated with anti-M13, HRP-conjugated antibody (Amersham, Chalfont St. Giles, Buckinghamshire, UK). Phage binding was determined by monitoring A405 upon addition of 2,2′-azino-bis(3-ethylbenzothiazoline-6-sulfonic acid) (Sigma Aldrich).

pIC50 (Gβ1γ2)	apparent affinity for Gβ1γ2 relative to M119 (Gβ1γ2)	SMILES	effect on fMLP-induced chemotaxis [1]	effect on cardiomyocyte contractility at baseline and with isoproterenol [2]	pIC50 (Gβ1γ2; ELISA, Table 19)	IC50 (Gβ1γ2; IC50 μM, Table 18, compounds identified in Elisa screen)	pIC50 (Gβ1γ2; IC50, Table 8, last row)	pIC50 (Gβ1γ2; IC50 in phage ELISA (SIGK competition))
6.70	–	O=C(O)c1ccccc1-c1c2ccc(=O)c(O)c-2oc2c(O)c(O)ccc12 (racemic) [Gallein]	inhibited	significant positive effects	–	–	–	–
–	–	O=C(O)C1CCCCC1c1c2ccc(=O)c(O)c-2oc2c(O)c(O)ccc12 (stereo not drawn) [Compound M119, cyclohexanecarboxylic acid, 2-(4,5,6-trihydroxy-3-oxo-3H-xanthen-9-yl)-(9cl)]	significantly blunted migration; also recorded: inhibited	enhanced	6.70	0.2 µM	7.00	6.70
–	1/1000	O=C(O)C1CCCCC1c1c2ccc(=O)cc-2oc2cc(O)ccc12 (stereo not drawn) [Compound M119B]	no effect on migration	no effect	–	–	–	–
